# Source: PubChem BioAssay AID1996
# Conditions: buffer; pH 7.4; 200.0 µM
row,Structure (SMILES),solubility kinetic
1,CC(C)NC(=O)CN1C(=O)c2cccc3cccc1c23,9.8 µg/mL
2,COC(=O)CCCNC(=O)c1ccccn1,> 33.3 µg/mL
3,CC(=O)Oc1ccc(N(C(C)=O)S(=O)(=O)c2ccc(C)cc2C)c2ccccc12,4.3 µg/mL
4,O=C(COc1ccc(-n2ccnc2)cc1)Nc1cccc(Cl)c1,23.7 µg/mL
5,COc1cc(C)c(Cl)cc1S(=O)(=O)N1CCSC1,33 µg/mL
6,Cc1ccc(NC(=O)OCc2cncs2)cc1,> 37.2 µg/mL
7,CCOC(=O)C1=C(CC)Nc2ccccc2N=C1N,14.3 µg/mL
8,Cc1ccc(S(=O)(=O)CCN2C=CC(C(F)(F)F)=NCC2)cc1,51.4 µg/mL
9,O=[N+]([O-])c1cc(Cl)ccc1N1CCOCC1,24.4 µg/mL
10,O=C(Nc1ccc(F)cc1)c1nc[nH]c1C(=O)O,> 37.4 µg/mL
11,O=C(OCC(=O)N1CCc2ccccc21)[C@@H]1CC(O)CN1S(=O)(=O)c1ccccc1[N+](=O)[O-] (some centres not stated),20.4 µg/mL
12,O=c1ccc2c([nH]1)CCCCCCCCCC2,5.2 µg/mL
13,O=C(O)/C=C/C(=O)Nc1ccc(S(=O)(=O)Nc2nccs2)cc1,> 53 µg/mL
14,Cc1ccsc1C(=O)N1CCN(c2ncccn2)CC1,> 43.3 µg/mL
15,CCN1C(=O)c2ccc(C(=O)Nc3c(C)cc(C)cc3C)cc2C1=O,< 0.4 µg/mL
16,CC(C)[C@H](NC(=O)c1ccco1)C(=O)OCC(=O)c1ccc(Br)s1,> 62.1 µg/mL
17,Cc1cccn2c(=O)c3cc(C(=O)NC4CCCC4)sc3nc12,4.9 µg/mL
18,O=C(c1ccc(F)cc1Cl)N1CCN(CCc2ccccc2)CC1,> 52 µg/mL
19,COc1ccc(CC(=O)Nc2ccc(OC)nc2)cc1,> 40.8 µg/mL
20,CC(C)NC(=O)c1cc(-c2cccs2)nc2ccccc12,4.6 µg/mL
21,Cc1csc(NC(=O)c2ccc(S(C)(=O)=O)cc2)n1,> 44.5 µg/mL
22,COc1cccc(NC(=O)N2C3CCCC2CC(NC(C)=O)C3)c1 (configuration not stated),> 49.7 µg/mL
23,O=C(CCc1nc(-c2ccccn2)no1)NCc1ccc2c(c1)OCO2,52.5 µg/mL
24,CCCCNC(=O)C1CCC(=O)N1CCc1ccccc1 (configuration not stated),42.4 µg/mL

row,Structure (SMILES),solubility kinetic
1,CN(C)S(=O)(=O)c1cccc(C(=O)N2CCN(C(=O)C3CCCO3)CC2)c1 (configuration not stated),> 59.3 µg/mL
2,CCc1ccc(OCC(O)CN2CCCC2)cc1.Cl (configuration not stated),39.8 µg/mL
3,CCOc1ccc(Br)cc1CNCc1cccnc1,> 48.2 µg/mL
4,S=C(NCc1ccco1)Nc1cccc(Cl)c1Cl,11.3 µg/mL
5,Cc1ccc(C)c(OCC(=O)Nc2ccc(N3CCOCC3)cc2)c1,6.1 µg/mL
6,CN(C)Cc1c(O)ccc2ccccc12,29.8 µg/mL
7,Cc1ccc(C(=O)N2CCN(C(=O)c3ccc(C)cc3)C2)cc1,> 46.3 µg/mL
8,COc1cc(NC(=O)CCCN2C(=O)NC(C)(C)C2=O)cc(OC)c1,49.6 µg/mL
9,C=CCN(c1ccccc1OC)S(=O)(=O)c1cccc(C(=O)OCC(=O)N2CCOCC2)c1,> 71.2 µg/mL
10,Cc1nc2cc(NC(=O)c3ccc(Cl)cc3)ccc2n1C,1 µg/mL
11,Cn1c(SCc2cccc(C#N)c2)nc2ccccc2c1=O,0.4 µg/mL
12,COc1ccc(CC(=O)Oc2ccccc2[N+](=O)[O-])cc1,14.2 µg/mL
13,CCC(=O)N(Cc1cc(=O)[nH]c2ccccc12)c1ccccc1,> 46 µg/mL
14,O=C(Nc1ccc(Cl)cc1C(=O)N1CCCCC1)c1ccco1,46.6 µg/mL
15,O=C(C1CCC1)N1CCC(O)(c2cccc(F)c2)CC1,39.4 µg/mL
16,CCc1cccc(NS(=O)(=O)c2ccc3c(c2)NC(=O)CC(=O)N3)c1,> 53.9 µg/mL
17,O=c1[nH]sc2ccccc12,21.7 µg/mL
18,Cc1ccc(Cl)cc1NC(=O)COc1ccccc1,1.9 µg/mL
19,O=C1CC(N2CCN(S(=O)(=O)c3ccccc3F)CC2)C(=O)N1c1ccc(F)cc1F (configuration not stated),> 68 µg/mL
20,O=c1oc2ccccc2c(NCCO)c1[N+](=O)[O-],> 37.5 µg/mL
21,Cc1ccc(C2=NCC(=O)Nc3ccc(Br)cc32)cc1,42.1 µg/mL
22,O=C(O)c1ccccc1Nc1ccnc(C(F)(F)F)c1,> 42.3 µg/mL
23,Cc1nc(Cl)c(C(=O)NCc2ccccc2)c(C)c1[N+](=O)[O-],10.8 µg/mL
24,Nc1ncnc(Oc2cccc(C(F)(F)F)c2)c1[N+](=O)[O-],7.6 µg/mL

row,Structure (SMILES),solubility kinetic
1,CCc1noc(N)c1C(=O)Nc1ccc(Cl)cc1,> 39.9 µg/mL
2,Cc1ccccc1NC(=O)c1cc[n+]([O-])cc1,> 34.2 µg/mL
3,COc1ccc(S(=O)(=O)N2CC(C)N(C(=O)N3CCOCC3)C2)cc1 (configuration not stated),> 55.4 µg/mL
4,O=[N+]([O-])c1ccc2c(c1N1CCCCC1)=NC1(CCCCC1)[N+]=2[O-],47.1 µg/mL
5,Cc1cccc(C(=O)NCC(=O)OCC(=O)NC2CCCCC2)c1,> 49.9 µg/mL
6,CCCCN(C)Cc1cc(=O)oc2cc3c(cc12)CCCC3,< 0.6 µg/mL
7,CC(NS(=O)(=O)c1ccc([N+](=O)[O-])cc1)C(=O)NN (configuration not stated),> 43.2 µg/mL
8,COC(=O)c1cc(OC)c(OC)c(OC)c1[N+](=O)[O-],38.5 µg/mL
9,Cc1onc(-c2ccccc2)c1C(=O)NCC(O)c1ccccc1 (configuration not stated),> 48.4 µg/mL
10,Cc1ccc(NCC(=O)N/N=C/c2ccc(C(=O)O)cc2)cc1,> 46.7 µg/mL
11,CC(=O)NC(c1ccc2ccccc2c1)c1ccc2cccnc2c1O (configuration not stated),1.2 µg/mL
12,COc1ccc(NC(=S)Nc2ccc(C)c(Cl)c2)cc1OC,36.5 µg/mL
13,O=C(CSc1nc2ccccc2s1)c1ccc(O)cc1O,3.3 µg/mL
14,Cc1ccccc1NC(=O)CN1CCN(C(=O)c2ccco2)CC1,> 49.1 µg/mL
15,CCOc1ccc(NC(=S)NC(=O)c2cccnc2)c([N+](=O)[O-])c1,4.3 µg/mL
16,N#Cc1cc2c(nc1S(=O)(=O)Cc1ccccc1)CCCC2,30.7 µg/mL
17,CC(C)c1ccc(Nc2nc(Cl)nc(NCCO)n2)cc1,2.7 µg/mL
18,O=C(COC(=O)c1ccc(S(=O)(=O)N2CCCCC2)cc1)NCc1ccccc1,3.6 µg/mL
19,Cc1ccnc(NC(=O)c2ccccc2NC(=O)c2ccccc2)c1,< 0.2 µg/mL
20,CCOC(=O)Cn1cnc2scc(-c3ccc(C)c(C)c3)c2c1=O,22.5 µg/mL
21,O=S(=O)(Nc1ccncc1Cl)c1cc(Cl)ccc1Cl,> 50.6 µg/mL
22,CC(=O)c1csc(COc2cc(Cl)cc(Cl)c2)n1,< 0.6 µg/mL
23,Cl.O=C(NC1CCN(Cc2ccccc2)CC1)c1ccccc1NS(=O)(=O)c1ccc(F)cc1,> 75.6 µg/mL
24,NC(=O)CC[C@H](NC(=O)c1ccc(F)cc1)C(=O)N1CCN(Cc2ccc3c(c2)OCO3)CC1,> 70.6 µg/mL

row,Structure (SMILES),solubility kinetic
1,Cc1ccc(C(=O)O/N=C(\c2ccccc2)c2ccncc2)cc1,0.6 µg/mL
2,Cn1c(=O)c([N+](=O)[O-])c(NCCCn2ccnc2)c2ccccc21,> 49.1 µg/mL
3,CCc1ccc(NC(=O)NCCCN2CCCC2=O)cc1,> 43.4 µg/mL
4,CCC1(c2ccccc2)NC(=O)N(CC(=O)Nc2ccc(N3CCOCC3)cc2)C1=O (configuration not stated),> 63.4 µg/mL
5,O=C(O)Cn1c(O)c(C2=c3ccccc3=NC2=O)sc1=O,39.4 µg/mL
6,CCC(=O)Nc1ccc2c(c1)nc1n2CCN(C2CCCCC2)C1,> 49 µg/mL
7,Cc1nc(SCC(=O)N2CC(=O)Nc3ccccc32)nc(C)c1C,10.8 µg/mL
8,Cc1cc(=O)[nH]c(Nc2ccc(N(C)C)cc2)n1,> 36.6 µg/mL
9,CC(C)(C)NC(=O)COC(=O)c1ccccc1C(=O)c1ccccc1,43.4 µg/mL
10,Cc1nn(CC(=O)N2CCN(C)CC2)c(=O)c2ccccc12,> 45.1 µg/mL
11,CCN(CC)CCCNc1ncnc2scc(-c3ccc(F)cc3)c12,> 53.8 µg/mL
12,COc1cc2c(cc1OC)-c1cc(Nc3ccccc3C)nc(=O)n1CC2,49.3 µg/mL
13,O=C(NCc1ccc2c(c1)OCO2)c1ccc(Br)cc1,3.1 µg/mL
14,COc1ccc(C(=O)NCCCNC(=O)c2cccnc2)cc1OC,44.5 µg/mL
15,CN(CCc1ccccc1)Cc1c[nH]c2ccccc12.O=C(O)C(=O)O,> 53.2 µg/mL
16,CCc1ccnc(NC(=O)Nc2ccc(OCc3ccccc3)cc2)c1,< 0.2 µg/mL
17,CCC1(c2ccccc2)NC(=O)N(CC(=O)NC2CCCCCC2)C1=O (configuration not stated),37.8 µg/mL
18,O=C(CN1N=C(c2ccccc2)CCC1=O)NCc1cccs1,> 49.1 µg/mL
19,COc1ccc(CC(=O)OCc2csc(CC(=O)Nc3ccc(C)cc3)n2)cc1,4.8 µg/mL
20,O=C(NCC(=O)N1CCCCC1)c1ccc2ccccc2c1,> 44.5 µg/mL
21,Cc1nnc(SCC(=O)NC2CC2)s1,> 34.4 µg/mL
22,CC(C)(C)c1ccc(NC(=O)c2c(F)cccc2Cl)cc1,1.1 µg/mL
23,CCC1(CC)NC(=O)N(CC(=O)Nc2ccc(C)cc2C)C1=O,> 47.6 µg/mL
24,O=C(Nc1ccc(F)cc1)Nc1cccc(Br)c1,0.7 µg/mL

row,Structure (SMILES),solubility kinetic
1,COc1ccc(Cc2n[nH]c(=S)o2)cc1,> 33.3 µg/mL
2,Cc1cccc[n+]1CC(=O)c1ccccc1.[Br-],> 43.8 µg/mL
3,Cc1ccccc1C(=O)NC(=S)NC1CCS(=O)(=O)C1 (configuration not stated),> 46.9 µg/mL
4,CC(NC(=O)CCl)c1ccccc1Br (configuration not stated),> 41.5 µg/mL
5,O=[N+]([O-])c1ccc(-c2cn3ccccc3n2)cc1,1.7 µg/mL
6,Cc1cccc(NC(=O)c2cccc(C(=O)Nc3cccc(C)n3)c2)n1,0.9 µg/mL
7,COC(=O)c1nc(-c2ccccc2)oc1N1CCOCC1,> 43.2 µg/mL
8,O=C(Nc1ccccc1F)c1ccc(CN2CCN(c3ccccc3)CC2)cc1,4.1 µg/mL
9,O=C(C1CCCN1S(=O)(=O)c1ccc(Cl)cc1)N1CCN(c2ccccc2)CC1 (configuration not stated),15.3 µg/mL
10,CCOC(=O)CN1C(=O)c2ccccc2Sc2ncccc21,> 47.2 µg/mL
11,CSc1ccccc1NC(=O)C1CC(c2ccccc2Cl)=NO1 (configuration not stated),0.8 µg/mL
12,O=C(COc1ccc2ccccc2c1)NCC1CCCO1 (configuration not stated),36.9 µg/mL
13,Cc1sc2ncnc(NCC(O)c3ccc([N+](=O)[O-])cc3)c2c1C (configuration not stated),5.5 µg/mL
14,CC(C)c1ccc2oc(=O)cc(CN3CCOCC3)c2c1,41.9 µg/mL
15,CCOc1ccc(N2C(=O)CC(C(C)c3ccccc3)C2=O)cc1 (configuration not stated),5.7 µg/mL
16,COc1ccc(S(=O)(=O)n2cccc2)cc1,4.2 µg/mL
17,O=C(O)C1C2C=CC(C2)C1C(=O)Nc1cccc(C(F)(F)F)c1 (configuration not stated),10.3 µg/mL
18,Cc1cc(OCC(=O)NCCc2c[nH]c3ccccc23)c2c(C)cc(=O)oc2c1,< 0.4 µg/mL
19,CN(C)C(=O)Oc1ccc2c(c1)O/C(=C\c1cccc(Cl)c1)C2=O,< 0.7 µg/mL
20,COc1cccc(C2(O)C(=O)Nc3ccccc32)c1 (configuration not stated),> 38.3 µg/mL
21,Cc1ccc(C(=O)NC2CC3CCC(C2)N3C)cc1 (configuration not stated),> 38.8 µg/mL
